{"source": "patent US5281596A", "about": "“Antibacterial drugs for fish” (Bayer Aktiengesellschaft, priority 1986, dated 1994)", "format_in_all_cases": "cell-based", "key": {"[1]": {"test_system": "Pasteurella piscicida", "assay": "In vitro antibacterial activity on pathogenic bacteria for fish (agar MIC, Test Example 1)", "conditions": "20 h; for MIC (minimum growth-inhibition concentration): Mueller-Hinton agar; for MIC: Photobacterium damselae", "description": "(§1) In vitro antibacterial activity on pathogenic-bacteria for fish\n(§2) Each of the test strains was cultured over-night, and each culture broth (containing about 10^6 cells/ml) was innoculated in Mueller-Hinton agar (DIFCO) supplied with 1.0-2.0% sodium chloride and containing the test compound at each specified concentration."}, "[2]": {"test_system": "Aeromonas hydrophila", "assay": "In vitro antibacterial activity on pathogenic bacteria for fish (agar MIC, Test Example 1)", "conditions": "20 h; for MIC (minimum growth-inhibition concentration): Mueller-Hinton agar; for MIC: Aeromonas hydrophila", "description": "as §1, §2"}, "[3]": {"test_system": "Vibrio anguillarum", "assay": "In vitro antibacterial activity on pathogenic bacteria for fish (agar MIC, Test Example 1)", "conditions": "20 h; for MIC: Vibrio anguillarum, read-out: MIC (minimum growth-inhibition concentration); for MIC (minimum growth-inhibition concentration): Mueller-Hinton agar", "description": "as §1, §2"}, "[4]": {"test_system": "Edwardsiella tarda", "assay": "In vitro antibacterial activity of Compound D against various pathogenic bacteria for fish (agar MIC, Test Example 2)", "conditions": "20 h, read-out: MIC (minimum growth-inhibition concentration)", "description": "(§3) In vitro antibacterial activity of Compound D against Various Pathogenic Bacteria for Fish\n(§4) Each of the test strains was cultured over-night, and the resultant culture broth (containing about 10^6 cells/ml) was innoculated in Mueller-Hinton agar (DIFCO) supplied with 1.0-2.0% sodium chloride and containing the test compound at the specified concentration."}, "[5]": {"test_system": "Pasteurella piscicida", "assay": "In vitro antibacterial activity of Compound D against various pathogenic bacteria for fish (agar MIC, Test Example 2)", "conditions": "Photobacterium damselae, 20 h, read-out: MIC (minimum growth-inhibition concentration)", "description": "as §3, §4"}, "[6]": {"test_system": "Streptococcus sp.", "assay": "In vitro antibacterial activity of Compound D against various pathogenic bacteria for fish (agar MIC, Test Example 2)", "conditions": "20 h, read-out: MIC (minimum growth-inhibition concentration)", "description": "as §3, §4"}, "[7]": {"test_system": "Pseudomonas anguilliseptica", "assay": "In vitro antibacterial activity of Compound D against various pathogenic bacteria for fish (agar MIC, Test Example 2)", "conditions": "20 h, read-out: MIC (minimum growth-inhibition concentration)", "description": "as §3, §4"}, "[8]": {"test_system": "Vibrio anguillarum", "assay": "In vitro antibacterial activity of Compound D against various pathogenic bacteria for fish (agar MIC, Test Example 2)", "conditions": "20 h", "description": "as §3, §4"}, "[9]": {"test_system": "Aeromonas salmonicida", "assay": "In vitro antibacterial activity of Compound D against various pathogenic bacteria for fish (agar MIC, Test Example 2)", "conditions": "20 h, read-out: MIC (minimum growth-inhibition concentration)", "description": "as §3, §4"}, "[10]": {"test_system": "Aeromonas hydrophila", "assay": "In vitro antibacterial activity of Compound D against various pathogenic bacteria for fish (agar MIC, Test Example 2)", "conditions": "20 h, read-out: MIC (minimum growth-inhibition concentration)", "description": "as §3, §4"}, "[11]": {"conditions": "25 strains, Mueller-Hinton agar, 25-30 °C"}}, "note": "Like-named read-outs stand apart in the source and are kept apart here.", "data": [{"smiles": "CCN1CCN(c2cc3c(cc2F)c(=O)c(C(=O)O)cn3C2CC2)CC1", "note": "[Compound D, 1-cyclopropyl-6-fluoro-1,4-dihydro-4-oxo-7-(4-ethylpiperazino)-quinoline-3-carboxylic acid]", "values": [{"measurement": "MIC (minimum growth-inhibition concentration)", "setting": "[1]; Pasteurella piscicida strain EH8309, 25-30 °C", "result": 0.025, "unit": "µg/mL"}, {"measurement": "MIC (minimum growth-inhibition concentration)", "setting": "[1]; Pasteurella piscicida strain NG8319, 25-30 °C", "result": 0.025, "unit": "µg/mL"}, {"measurement": "MIC", "setting": "[1]; Pasteurella piscicida strain EH8304, Mueller-Hinton agar, 25-30 °C, read-out: MIC (minimum growth-inhibition concentration)", "result": 0.05, "unit": "µg/mL"}, {"measurement": "MIC", "setting": "[1]; Pasteurella piscicida strain EH8312, Mueller-Hinton agar, 25-30 °C, read-out: MIC (minimum growth-inhibition concentration)", "result": 0.05, "unit": "µg/mL"}, {"measurement": "MIC", "setting": "[1]; Pasteurella piscicida strain EH8313, Mueller-Hinton agar, 25-30 °C, read-out: MIC (minimum growth-inhibition concentration)", "result": 0.05, "unit": "µg/mL"}, {"measurement": "MIC (minimum growth-inhibition concentration)", "setting": "[2]; Aeromonas hydrophila strain C 44, 25-30 °C", "result": "< 0.0125", "unit": "µg/mL"}, {"measurement": "MIC (minimum growth-inhibition concentration)", "setting": "[2]; Aeromonas hydrophila strain KA8414, 25-30 °C", "result": "< 0.0125", "unit": "µg/mL"}, {"measurement": "MIC (minimum growth-inhibition concentration)", "setting": "[2]; Aeromonas hydrophila strain KA8416, 25-30 °C", "result": "< 0.0125", "unit": "µg/mL"}, {"measurement": "MIC (minimum growth-inhibition concentration)", "setting": "[2]; Aeromonas hydrophila strain M 183, 25-30 °C", "result": "< 0.0125", "unit": "µg/mL"}, {"measurement": "MIC", "setting": "[2]; Aeromonas hydrophila strain KA8301, Mueller-Hinton agar, 25-30 °C, read-out: MIC (minimum growth-inhibition concentration)", "result": 0.025, "unit": "µg/mL"}, {"measurement": "MIC", "setting": "[3]; Vibrio anguillarum strain NA8340, Mueller-Hinton agar, 25-30 °C", "result": 0.025, "unit": "µg/mL"}, {"measurement": "MIC", "setting": "[3]; Vibrio anguillarum strain NA8341, Mueller-Hinton agar, 25-30 °C", "result": 0.025, "unit": "µg/mL"}, {"measurement": "MIC", "setting": "[3]; Vibrio anguillarum strain NA8346, Mueller-Hinton agar, 25-30 °C", "result": 0.025, "unit": "µg/mL"}, {"measurement": "MIC", "setting": "[3]; Vibrio anguillarum strain NA8347, Mueller-Hinton agar, 25-30 °C", "result": 0.025, "unit": "µg/mL"}, {"measurement": "MIC", "setting": "[3]; Vibrio anguillarum strain NH8410, Mueller-Hinton agar, 25-30 °C", "result": 0.025, "unit": "µg/mL"}, {"measurement": "MIC", "setting": "[4]; [11]", "result": "0.025 to 0.2", "unit": "µg/mL"}, {"measurement": "MIC", "setting": "[5]; Pasteurella piscicida, 25 strains, Mueller-Hinton agar, 25-30 °C", "result": "0.0125 to 0.05", "unit": "µg/mL"}, {"measurement": "MIC", "setting": "[6]; Streptococcus sp., 25 strains, Mueller-Hinton agar, 25-30 °C", "result": 0.8, "unit": "µg/mL"}, {"measurement": "MIC", "setting": "[7]; 18 strains, Mueller-Hinton agar, 25-30 °C", "result": "0.0125 to 0.025", "unit": "µg/mL"}, {"measurement": "MIC", "setting": "[8]; Ayu origin, 25 strains, Mueller-Hinton agar, 25-30 °C, read-out: MIC (minimum growth-inhibition concentration)", "result": "0.025 to 0.4", "unit": "µg/mL"}, {"measurement": "MIC", "setting": "[8]; Yellowtail origin, 25 strains, Mueller-Hinton agar, 25-30 °C, read-out: MIC (minimum growth-inhibition concentration)", "result": "0.05 to 0.1", "unit": "µg/mL"}, {"measurement": "MIC", "setting": "[9]; [11]", "result": "0.0125 to 0.1", "unit": "µg/mL"}]}, {"smiles": "CCn1cc(C(=O)O)c(=O)c2cc3c(cc21)OCO3", "note": "[Compound OA, 1-ethyl-1,4-dihydro-6,7-methylenedioxy-4-oxo-3-quinolinecarboxylic acid, reference compound]", "values": [{"measurement": "MIC", "setting": "[1]; read-out: MIC (minimum growth-inhibition concentration), Pasteurella piscicida strain EH8304, Mueller-Hinton agar, 25-30 °C", "result": 0.1, "unit": "µg/mL"}, {"measurement": "MIC", "setting": "[1]; read-out: MIC (minimum growth-inhibition concentration), Pasteurella piscicida strain EH8309, Mueller-Hinton agar, 25-30 °C", "result": 0.1, "unit": "µg/mL"}, {"measurement": "MIC", "setting": "[1]; read-out: MIC (minimum growth-inhibition concentration), Pasteurella piscicida strain EH8312, Mueller-Hinton agar, 25-30 °C", "result": 0.1, "unit": "µg/mL"}, {"measurement": "MIC", "setting": "[1]; read-out: MIC (minimum growth-inhibition concentration), Pasteurella piscicida strain EH8313, Mueller-Hinton agar, 25-30 °C", "result": 0.1, "unit": "µg/mL"}, {"measurement": "MIC", "setting": "[1]; read-out: MIC (minimum growth-inhibition concentration), Pasteurella piscicida strain NG8319, Mueller-Hinton agar, 25-30 °C", "result": 0.1, "unit": "µg/mL"}, {"measurement": "MIC", "setting": "[2]; read-out: MIC (minimum growth-inhibition concentration), Aeromonas hydrophila strain C 44, Mueller-Hinton agar, 25-30 °C", "result": "< 0.0125", "unit": "µg/mL"}, {"measurement": "MIC", "setting": "[2]; read-out: MIC (minimum growth-inhibition concentration), Aeromonas hydrophila strain KA8301, Mueller-Hinton agar, 25-30 °C", "result": "< 0.0125", "unit": "µg/mL"}, {"measurement": "MIC", "setting": "[2]; read-out: MIC (minimum growth-inhibition concentration), Aeromonas hydrophila strain KA8414, Mueller-Hinton agar, 25-30 °C", "result": "< 0.0125", "unit": "µg/mL"}, {"measurement": "MIC", "setting": "[2]; read-out: MIC (minimum growth-inhibition concentration), Aeromonas hydrophila strain KA8416, Mueller-Hinton agar, 25-30 °C", "result": "< 0.0125", "unit": "µg/mL"}, {"measurement": "MIC", "setting": "[2]; read-out: MIC (minimum growth-inhibition concentration), Aeromonas hydrophila strain M 183, Mueller-Hinton agar, 25-30 °C", "result": "< 0.0125", "unit": "µg/mL"}, {"measurement": "MIC (minimum growth-inhibition concentration)", "setting": "[3]; Vibrio anguillarum strain NA8340, 25-30 °C", "result": 0.05, "unit": "µg/mL"}, {"measurement": "MIC (minimum growth-inhibition concentration)", "setting": "[3]; Vibrio anguillarum strain NA8341, 25-30 °C", "result": 0.05, "unit": "µg/mL"}, {"measurement": "MIC (minimum growth-inhibition concentration)", "setting": "[3]; Vibrio anguillarum strain NA8346, 25-30 °C", "result": 0.05, "unit": "µg/mL"}, {"measurement": "MIC (minimum growth-inhibition concentration)", "setting": "[3]; Vibrio anguillarum strain NA8347, 25-30 °C", "result": 0.05, "unit": "µg/mL"}, {"measurement": "MIC", "setting": "[3]", "result": 0.05, "unit": "µg/mL"}, {"measurement": "MIC", "setting": "[4]", "result": "0.05 to 1.6", "unit": "µg/mL"}, {"measurement": "MIC", "setting": "[5]", "result": "0.025 to 0.1", "unit": "µg/mL"}, {"measurement": "MIC", "setting": "[10]", "result": "0.0125 to 0.025", "unit": "µg/mL"}, {"measurement": "MIC", "setting": "[6]; Streptococcus", "result": "200 to 400", "unit": "µg/mL"}, {"measurement": "MIC", "setting": "[7]", "result": "0.0125 to 0.05", "unit": "µg/mL"}, {"measurement": "MIC", "setting": "[8]; read-out: MIC (minimum growth-inhibition concentration), Vibrio anguillarum, Ayu origin, 25 strains, Mueller-Hinton agar, 25-30 °C", "result": "0.05 to 25", "unit": "µg/mL"}, {"measurement": "MIC", "setting": "[8]; read-out: MIC (minimum growth-inhibition concentration), Vibrio anguillarum, Yellowtail origin, 25 strains, Mueller-Hinton agar, 25-30 °C", "result": "0.025 to 0.05", "unit": "µg/mL"}, {"measurement": "MIC", "setting": "[9]", "result": "0.05 to 3.2", "unit": "µg/mL"}]}]}
